Source: patent US8530470B2, “Chromenone derivatives” (Astrazeneca AB, priority 2011, dated 2013)
Read-outs that look alike come from different tables or passages of the source.

Assays:
PI3Kβ = PI3Kβ (Homo sapiens, UniProt P42338); assay: In vitro enzyme inhibition assay (Kinase Glo), PI3Kβ; format: biochemical; conditions: Test (a)
Procedure: (§1) (a) In Vitro Enzyme Inhibition Assay
(§2) The inhibition of PI3Kβ, PI3Kα, PI3Kγ and PI3Kδ was evaluated in a Kinase Glo based enzyme activity assay using human recombinant enzymes. The assay measures depletion of ATP after incubation with enzyme, PIP2 and ATP plus compound. ATP at the end of the reaction is detected by addition of Kinase Glo reagent, in this the Ultra Glo™ luciferase (Promega) uses the ATP as a substrate to catalyze the mono-oxygenation of luciferin and the generation of light. A direct relationship exists between the luminescence measured with the Kinase-Glo Plus Reagent and the amount of ATP remaining in a completed kinase reaction and luminescence is inversely related to kinase activity. Twelve different compound concentrations were tested and raw data from the inhibition of PI3Kβ, PI3Kα, PI3Kγ and PI3Kδ was plotted versus inhibitor concentration.
(§3) Compounds in 100% DMSO were added to assay plates by acoustic dispensing. PI3β was added in a Tris buffer (50 mM Tris pH7.4, 0.05% CHAPS, 2.1 mM DTT, and 10 mM MgCl2) and allowed to preincubate with compound for 20 min prior to addition of substrate solution containing PIP2 and ATP. The enzyme reaction was stopped after 80 min by the addition of Kinase Glo detection solution. […] The final concentration of DMSO, ATP and PIP2 in the assay were, 1%, 8 μM, and 80 μM respectively.
(§4) IC50 values were calculated using a log curve fitting to a non-linear regression package, fitting raw data to inhibitor concentration.

PI3Kδ = PI3Kδ (Homo sapiens, UniProt O00329); assay: In vitro enzyme inhibition assay (Kinase Glo), PI3Kδ; format: biochemical; conditions: Test (a)
Chain of PI3Kδ (O00329 whole entry): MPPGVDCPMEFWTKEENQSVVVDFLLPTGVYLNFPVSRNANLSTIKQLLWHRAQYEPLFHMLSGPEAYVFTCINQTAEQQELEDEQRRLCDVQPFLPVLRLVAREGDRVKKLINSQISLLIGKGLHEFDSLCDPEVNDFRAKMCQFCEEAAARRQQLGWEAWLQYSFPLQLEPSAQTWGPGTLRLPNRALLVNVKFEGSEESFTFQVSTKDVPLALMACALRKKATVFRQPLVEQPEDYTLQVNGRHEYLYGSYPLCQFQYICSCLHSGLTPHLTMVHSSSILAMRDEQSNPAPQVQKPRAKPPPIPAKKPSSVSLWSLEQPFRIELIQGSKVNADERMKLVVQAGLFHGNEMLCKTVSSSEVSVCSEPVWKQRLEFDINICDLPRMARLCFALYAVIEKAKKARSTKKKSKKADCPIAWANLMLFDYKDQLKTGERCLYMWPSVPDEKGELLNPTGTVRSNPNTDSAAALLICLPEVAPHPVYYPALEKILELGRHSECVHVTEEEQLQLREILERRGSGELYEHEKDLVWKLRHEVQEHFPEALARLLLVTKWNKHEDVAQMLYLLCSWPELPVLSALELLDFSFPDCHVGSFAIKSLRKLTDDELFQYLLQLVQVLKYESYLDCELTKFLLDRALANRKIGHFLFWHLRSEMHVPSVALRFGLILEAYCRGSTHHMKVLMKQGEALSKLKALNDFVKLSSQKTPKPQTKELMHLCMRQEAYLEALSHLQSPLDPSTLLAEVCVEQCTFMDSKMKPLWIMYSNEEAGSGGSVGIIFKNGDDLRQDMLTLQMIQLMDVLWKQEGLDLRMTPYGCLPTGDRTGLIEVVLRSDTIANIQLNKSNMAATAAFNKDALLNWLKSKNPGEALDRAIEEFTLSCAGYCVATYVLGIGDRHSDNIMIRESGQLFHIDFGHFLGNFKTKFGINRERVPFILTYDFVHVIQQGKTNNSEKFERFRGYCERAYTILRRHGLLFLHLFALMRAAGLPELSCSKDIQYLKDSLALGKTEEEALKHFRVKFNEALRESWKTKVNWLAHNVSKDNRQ
Chain of PI3Kδ (P27986 whole entry partner): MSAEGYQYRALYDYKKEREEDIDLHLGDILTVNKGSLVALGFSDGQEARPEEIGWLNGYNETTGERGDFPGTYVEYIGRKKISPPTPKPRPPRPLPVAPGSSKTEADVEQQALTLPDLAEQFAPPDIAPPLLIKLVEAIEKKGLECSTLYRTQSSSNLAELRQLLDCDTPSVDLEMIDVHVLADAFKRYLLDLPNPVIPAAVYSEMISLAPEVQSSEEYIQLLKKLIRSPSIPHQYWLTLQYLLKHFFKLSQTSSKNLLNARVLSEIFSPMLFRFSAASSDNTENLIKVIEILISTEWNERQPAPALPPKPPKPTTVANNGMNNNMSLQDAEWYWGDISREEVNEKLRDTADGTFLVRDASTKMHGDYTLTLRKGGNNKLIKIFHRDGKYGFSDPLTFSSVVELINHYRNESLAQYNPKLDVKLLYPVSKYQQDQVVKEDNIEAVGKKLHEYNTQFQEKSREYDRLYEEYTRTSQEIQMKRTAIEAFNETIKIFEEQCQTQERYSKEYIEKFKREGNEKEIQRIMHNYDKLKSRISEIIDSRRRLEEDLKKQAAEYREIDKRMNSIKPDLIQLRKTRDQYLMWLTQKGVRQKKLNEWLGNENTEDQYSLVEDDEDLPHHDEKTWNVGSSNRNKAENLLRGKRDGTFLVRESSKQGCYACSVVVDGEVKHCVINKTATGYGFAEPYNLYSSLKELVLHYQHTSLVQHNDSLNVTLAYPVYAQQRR
Procedure: as §1, §2, §3, §4

[1] = tested on: phospho AKT (ser473) in MDA-MB-468 cells; assay: Detection of phospho AKT (ser473) in MDA-MB-468 cells; format: cell-based; conditions: Homo sapiens, Test (b), 2 hours incubation, approximate value, read-out: IC50 versus cellular phospho AKT (ser473) in MDA-MB-468 cells
Procedure: (b) Protocol for Detection of Phospho AKT (ser473) in MDA-MB-468 Cells
MDA-MB-468 cells (human breast adenocarcinoma ATCC HTB 132) are seeded into Greiner 384 well black flat-bottomed plates by automated cell culture robot (Selec T). Cells can also be maintained manually and seeded into plates using multidrop or Wellmate. Cells seeded at 1500 cell/well in 40 μl of DMEN containing 10% FCS and 1% glutamine. Cell plates are incubated for 18 hours in a 37° C. incubator.
Compounds are dosed onto cells using an Echo acoustic dispenser, which dispenses nl quantities of compound or DMSO. Compounds are dosed in a 12 point concentration range from 30 μM top dose, 28 compounds are dosed on one plate. There are 17 DMSO only positive control wells per plate, and 16 negative control well which have been dosed with a concentration of reference compound that will knockout the pAKT signal.
Plates are incubated at 37° C. for 2 hours, cells are the fixed by the addition of 10 μl of a 3.7% Formaldehyde solution in a fume cupboard using a Wellmate.
After 30 min to allow for fixation, the fixative and media are removed and the plates washed with Proclin PBS/A using Tecan PW384 plate washer in a fume cupboard. Wells are blocked and permeabilised with the addition of 40 μl of PBS containing 0.5% Tween20 and 1% marvel using a Wellmate and incubated for 60 min at room temperature.
Permeabilisation and blocking buffer removed using Tecan PW384 plate washer, then 20 μl primary antibody solution added using a Wellmate. The primary antibody solution is a 1:500 dilution of Rabbit anti-phospho AKT Ser 473 (Cell signalling technologies catalogue number #3787) in PBS/T containing 1% marvel (dried milk powder) and incubated overnight at 4° C.
Plates are washed using a Tecan PW384 plate washer three times with Phosphate Buffered Saline+0.05% (v/v) Polysorbate20 and Proclin300 (Supelco). 20 μl of secondary antibody solution is then added to each well using a Wellmate and incubated for 1 hour at Room Temp. The secondary antibody solution is a 1:1000 dilution of Alexa Fluor 488 anti-Rabbit (Molecular Probes cat no A11008) diluted in Phosphate Buffered Saline+0.05% (v/v) Polysorbate20 containing 1% marvel. Plates are washed three times as before then […] added to each well and plates sealed with black plate sealer.
The plates are read on an Acumen reader as soon as possible. Using this system IC50 values can be generated and quality of plates determined by control wells. Reference compounds are run each time to monitor assay performance.

[2] = tested on: phosphoinositide (PI) 3-kinase; assay: Comparison of activity of enantiomers (PI 3-kinase inhibitory activity); format: biochemical; conditions: (+) enantiomer of Example 1.03 compared with the other enantiomer
Text: The synthesis of optically active forms may be carried out by standard techniques of organic chemistry well known in the art, for example by synthesis from optically active starting materials or by resolution of a racemic form. Similarly, the above-mentioned activity may be evaluated using the standard laboratory techniques.
For the avoidance of doubt, the chiral centre in question is the carbon atom at the 2-position of the central pyrrolidine ring that is linked to the chromenone bicyclic ring.

[3] = tested on: phospho AKT (ser473) in Jeko cells; assay: Detection of phospho AKT (ser473) in Jeko cells; format: cell-based; conditions: Homo sapiens; Test (e); anti-IgM stimulated; approximate value; read-out: IC50 versus cellular phospho AKT (ser473) in Jeko cells
Procedure: (e) Protocol for Detection of Phospho AKT (ser473) in Jeko Cells
Compounds at ×10 final concentration in 10 μl of 1% (v/v) DMSO are added to the wells of a Greiner V-bottomed 96 well plate. Compounds are dosed in a 10-point concentration range from 1 μM top dose, 8 compounds are dosed on one plate. There are 8 DMSO positive control wells per plate which have been dosed with vehicle and anti-IgM, and 8 negative control wells which have been dosed with vehicle and assay buffer. Final vehicle concentration is 0.1% DMSO. A reference PI3Kδ selective compound is included in each run. Jeko B cells (human mantle cell lymphoma, ATCC CRL-3006) are seeded into the Greiner 96 well V-bottomed plates containing compounds. Cells are seeded at 100,000 cell/well in 70 μl of RPMI containing 1% glutamine.
Cell plates are incubated for 1 hour in a 37° C. incubator. After this compound pre-incubation time, anti-IgM (F(ab′)2 fragment goat anti-human IgM, Stratech 109-006-129) is added to the plates at ×5 final concentration in 20 μl of assay buffer (RPMI containing 1% glutamine). Final anti-IgM concentration is 0.06 μg/ml or an equivalent EC90 dose. Plates are incubated at 37° C. for 10 min, subsequently plates are immediately placed on ice and centrifuged at […] for 4 min. On ice, supernatants are carefully removed with a manual pipette and 40 μl lysis buffer added. […]

[4] = approximate value, read-out: IC50 versus PI3Kβ
[5] = approximate value, read-out: IC50 versus PI3Kδ
[6] = human recombinant enzyme, ATP 8 μM, PIP2 80 μM, Table A, read-out: PI3Kβ inhibition, IC50
[7] = human recombinant enzyme, Table A, read-out: PI3Kδ inhibition, IC50

Chain of PI3Kβ (P42338 whole entry): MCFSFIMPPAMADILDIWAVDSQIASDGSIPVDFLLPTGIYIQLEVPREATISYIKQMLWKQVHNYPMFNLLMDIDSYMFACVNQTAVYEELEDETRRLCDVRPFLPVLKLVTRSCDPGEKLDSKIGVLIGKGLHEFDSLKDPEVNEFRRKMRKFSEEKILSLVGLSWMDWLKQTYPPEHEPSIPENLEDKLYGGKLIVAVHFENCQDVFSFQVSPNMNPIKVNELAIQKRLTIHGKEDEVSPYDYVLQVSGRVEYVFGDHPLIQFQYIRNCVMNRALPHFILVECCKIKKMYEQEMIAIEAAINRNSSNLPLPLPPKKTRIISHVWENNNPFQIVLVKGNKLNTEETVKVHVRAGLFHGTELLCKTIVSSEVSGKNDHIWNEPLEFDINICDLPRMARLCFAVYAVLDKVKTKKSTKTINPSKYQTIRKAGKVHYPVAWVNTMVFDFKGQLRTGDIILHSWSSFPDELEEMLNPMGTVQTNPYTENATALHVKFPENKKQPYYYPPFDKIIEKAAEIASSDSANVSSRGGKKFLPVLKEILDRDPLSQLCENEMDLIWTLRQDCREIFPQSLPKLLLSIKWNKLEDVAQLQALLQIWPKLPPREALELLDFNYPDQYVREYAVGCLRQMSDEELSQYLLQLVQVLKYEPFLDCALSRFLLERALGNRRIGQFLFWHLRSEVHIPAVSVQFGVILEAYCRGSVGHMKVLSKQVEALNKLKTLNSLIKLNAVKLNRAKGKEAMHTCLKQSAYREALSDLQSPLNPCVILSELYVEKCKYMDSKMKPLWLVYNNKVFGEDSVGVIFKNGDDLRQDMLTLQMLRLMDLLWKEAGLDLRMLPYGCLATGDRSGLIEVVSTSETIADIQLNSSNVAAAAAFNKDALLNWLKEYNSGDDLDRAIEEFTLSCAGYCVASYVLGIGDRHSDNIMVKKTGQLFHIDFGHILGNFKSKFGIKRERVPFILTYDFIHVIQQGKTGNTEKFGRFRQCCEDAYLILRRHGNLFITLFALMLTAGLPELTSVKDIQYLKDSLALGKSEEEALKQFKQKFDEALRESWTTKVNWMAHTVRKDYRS
Chain of PI3Kβ (P27986 whole entry partner): as the sequence (P27986 whole entry partner) above

IC50 (PI3Kβ; [4]) [nM]	IC50 (PI3Kδ; [5]) [nM]	IC50 [1] [nM]	activity relative to the other enantiomer [2]	IC50 (PI3Kβ; [6]) [nM]	IC50 (PI3Kδ; [7]) [nM]	Structure (SMILES)	IC50 [3] [nM]
~198	~282	~27	weaker activity	–	–	O=C(c1cc([C@@H]2CCCN2c2cc(F)cc(F)c2)c2oc(N3CCOCC3)cc(=O)c2c1)N1CCOCC1 [Example 1.03a, 8-[(2S)-1-(3,5-difluorophenyl)pyrrolidin-2-yl]-6-(morpholine-4-carbonyl)-2-morpholino-4H-chromen-4-one]	–
~14	~10	~3	–	14	10	C[C@@H]1CN(c2cc(=O)c3cc(C(=O)N4CCOCC4)cc(C4CCCN4c4cccc(F)c4)c3o2)CCO1 (stereo partly drawn) [Example 3.02, 8-(1-(3-fluorophenyl)pyrrolidin-2-yl)-2-((R)-2-methylmorpholino)-6-(morpholine-4-carbonyl)-4H-chromen-4-one]	–
~10	~7	~1	–	10	7	C[C@@H]1CN(c2cc(=O)c3cc(C(=O)N(C)C)cc(C4CCCN4c4cccc(F)c4)c3o2)CCO1 (stereo partly drawn) [Example 3.03, 8-(1-(3-fluorophenyl)pyrrolidin-2-yl)-N,N-dimethyl-2-((R)-2-methylmorpholino)-4-oxo-4H-chromene-6-carboxamide]	–

Structure (SMILES)	IC50 (PI3Kβ; [4]) [nM]	IC50 (PI3Kδ; [5]) [nM]	IC50 [1] [nM]	activity relative to the other enantiomer [2]	IC50 (PI3Kβ; [6]) [nM]	IC50 (PI3Kδ; [7]) [nM]	IC50 [3] [nM]
O=C(c1cc([C@H]2CCCN2c2cc(F)cc(F)c2)c2oc(N3CCOCC3)cc(=O)c2c1)N1CCOCC1 [Example 1.03b, 8-[(2R)-1-(3,5-difluorophenyl)pyrrolidin-2-yl]-6-(morpholine-4-carbonyl)-2-morpholino-chromen-4-one]	~7	~9	~1	–	7	9	~7
